Measured values from US12403184B2, “Compositions and methods for treating neurodegenerative disroders” (priority 2018, dated 2025).
Where no end group is shown, it is not given here.

Legend:
Drp1 = Drp1 mitochondrial level and Drp1 oligomerization in striatum of treated HD mice; format: in vivo, mouse; details: for Drp1 translocation to the mitochondria: 1 mg/kg/day
Description: Cells were washed with cold phosphate-buffered saline (PBS) and incubated on ice in mitochondrial lysis buffer (250 mM sucrose, 20 mM HEPES-NaOH, pH 7.5, 10 mM KCl, 1.5 mM MgCl2, 1 mM EDTA, 1 mM EGTA, protease inhibitor cocktail, and phosphatase inhibitor cocktail) for 30 min. The cells were scraped and then disrupted 15 times by repeated aspiration through a 25-gauge needle. Mouse brains were minced and homogenized in mitochondrial lysis buffer to release mitochondria. The homogenates were spun at 800×g for 10 min at 4° C., and the resulting supernatants were spun at 12,000×g for 20 min at 4° C. The pellets were washed with lysis buffer and spun at 12,000×g again for 20 min at 4° C. The final pellets were suspended in lysis buffer containing 1% Triton X-100 and were mitochondrial-rich lysate fractions. The mitochondrial protein voltage-dependent anion channel (VDAC) was used as a loading control.
Protein concentration was measured by protein assay dye reagents (Bio-rad). The protein was resuspended in Laemmli buffer, loaded on SDS-PAGE, and transferred onto nitrocellulose membranes. Membranes were probed with the indicated antibodies, followed by visualization with ECL. Representative blots have been cropped for presentation.
Systemic peptide treatment in HD mice. All randomization and peptide treatments were prepared by an experimenter not associated with behavioral and neuropathology analysis. Male R6/2 mice (Tg) and their age-matched wild-type littermates (Wt) (6-week-old) were implanted with a 28-day osmotic pump (Alzet, Cupertino CA, Model 2004) containing TAT control peptide or DA1 peptide, which delivered peptides at a rate of 1 mg/kg/day. Male YAC128 mice (Tg) and their age-matched wild-type littermates (WT) were treated with TAT control peptide or DA1 peptide (1 mg/kg/day) by Alzet osmotic pump starting from the age of 3 months. The pump was replaced once every month.

ATAD3A = target: T1, ATAD3A (Homo sapiens, UniProt Q9NVI7, K135E); test: ATAD3A dimerization by western blot, HEK293 cells; format: cell-based
T1 construct: expressed in transfected cells; host or cells: HEK293 cells
T1 sequence (Q9NVI7 51-586 K135E limits assumed): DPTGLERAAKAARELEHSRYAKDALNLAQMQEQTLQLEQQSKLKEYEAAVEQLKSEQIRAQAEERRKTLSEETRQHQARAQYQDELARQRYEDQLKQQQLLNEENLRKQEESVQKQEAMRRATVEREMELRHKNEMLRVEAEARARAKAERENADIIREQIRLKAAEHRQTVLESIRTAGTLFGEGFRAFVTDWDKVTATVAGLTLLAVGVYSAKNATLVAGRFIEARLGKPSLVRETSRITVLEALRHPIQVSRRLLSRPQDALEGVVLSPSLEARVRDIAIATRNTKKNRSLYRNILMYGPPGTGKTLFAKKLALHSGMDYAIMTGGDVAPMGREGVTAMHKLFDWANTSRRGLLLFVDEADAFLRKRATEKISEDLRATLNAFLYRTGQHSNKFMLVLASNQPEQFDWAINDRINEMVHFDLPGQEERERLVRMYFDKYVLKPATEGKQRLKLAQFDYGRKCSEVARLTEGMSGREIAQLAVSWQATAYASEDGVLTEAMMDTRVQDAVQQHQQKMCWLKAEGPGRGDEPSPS
Excerpt: Human ATAD3A was amplified from HEK293T cDNA samples through standard PCR methods, and then cloned into pCMV-Myc, pcDNA3.1 (+)-Flag, pEGFP-N1 vectors. ATAD3A truncated mutants were constructed using overlap cloning techniques. ATAD3A point mutant K358E, and K135 mutants (K135E, K135R, K135Q, and K135A) and S2S48 mutants were constructed by using QuickChange II Site-Directed Mutagenesis Kit (Agilent Technologies). Drp1 truncated mutants were described in our previous study. Cells were transfected with plasmids using TransIT®-2020 transfection reagent (Minis Bio LLC, Madison, WI) according to manufacturer's instruction.
To analyze dimerization of ATAD3A under non-reducing conditions, the cells or tissues were harvested and lysed with total lysates buffer. An equal amount of proteins was subject to 8% SDS-PAGE analysis in the presence or absence of β-mercaptoethanol (β-ME). For in vitro BMH crosslinking, the cell lysates were incubated with 1 mM BMH at r.t. for up to 25 min and quenched with 0.1% β-ME, followed by SDS-PAGE analysis. For in-vivo crosslinking, the cells were treated with cell-permeable crosslinker BMH (1 mM) for 20 min at 37° C. After crosslinking, the cells were quenched in PBS with 0.1% β-ME. For DSP crosslinking, the cells were treated with cell-permeable crosslinker for 5 min at 37° C., followed by quenching and washing with 10 mM Glycine in PBS. For formaldehyde (FA) crosslinking, the cells were incubated with PBS buffer containing 1% FA for 20 min at r.t., and the crosslinking reaction was terminated by washing in PBS containing 100 mM glycine. The cells were then lysed and subject to 8% SDS-PAGE analysis. For DTSSP crosslinking of proteins in mitochondrial fractions, isolated mitochondria samples were suspended in the mitochondrial lysis buffer (250 mM sucrose, 20 mM HEPES-NaOH, pH 7.5, 10 mM KCl, 1.5 mM MgCl2, 1 mM EDTA, 1 mM EGTA and protease inhibitor). An equal amount of crude mitochondria was incubated at 30° C. in the presence of 0.5 mM DTSSP. The cross-linking was terminated by the addition of SDS loading buffer. […]

YGRKKRRQRRRGGEDKRKT-NH2 [DA1, YGRKKRRQRRR-GG-EDKRKT-NH2]
Drp1 translocation to the mitochondria (Drp1; striatum of HD R6/2 mice): abrogated
Drp1 polymerization (Drp1; striatum of HD R6/2 mice, 12 weeks old): abrogated
Drp1 translocation to the mitochondria (Drp1; striatum of HD YAC128 mice): abrogated
Drp1 polymerization (Drp1; striatum of HD YAC128 mice, 12 months old): abrogated
dimerization of ATAD3A (ATAD3A; HEK293 cells expressing ATAD3A acetyl-deficient mutant K135E): abolished
dimerization of ATAD3A (ATAD3A; HEK293 cells expressing ATAD3A ΔN50 mutant, 1 μM for 48 h): abolished
dimerization of ATAD3A (ATAD3A; normal cells or cells expressing ATAD3A wildtype): minor effect
